According to US20240207410A1, “STABILIZED LIQUID COMPOSITIONS COMPRISING A LEVODOPA-TYROSINE CONJUGATE AND USES THEREOF” (NeuroDerm, Ltd., priority 2021, published 2024):
Converted amounts (≈) assume the structure as drawn. Where a SMILES comes first, the peptide text is derived from it. [ ]: non-standard residue; d: D form. pY = N[C@@H](Cc1ccc(OP(=O)(O)O)cc1)C(=O)O; Dopa = N[C@@H](Cc1ccc(O)c(O)c1)C(=O)O

Tests used:
Format in all cases: physicochemical
[1] = Long-term stability of 30% LD-Tyrosine/0.75% carbidopa at 2-8° C.
Experimental: The formulation also included 0.5% ascorbic acid (Asc), 0.5% N-acetyl cysteine (NAC) and 0.3% Tween 80. The formulation was stored at 2-8° C. for the time indicated, and % recovery and % LD-Tyr-DKP formation (an impurity) were tested. Percent recovery remained high over time. The DKP impurity accumulated over time.

[2] = Evaluation of solution stability, pH 7.4, 25° C.; conditions: for HPLC purity difference: phosphate buffer pH 7.4, about 1 mg/mL, 25° C.
Experimental: A phosphate buffer solution at pH 7.4 was added to each of the compounds to dissolve the each of the compounds, and when necessary, a NaOH solution was added to adjust the pH of the mixture to prepare a solution of about 1 mg/mL. After storing this solution at 25° C. for about 1 day, HPLC purity (area percentage, %) was measured. The HPLC purity of the solution immediately after the preparation, or the HPLC purity of the compound, was subtracted from the HPLC purity after storage at 25° C. for about 1 day to obtain a HPLC purity difference. […] In Tables 9-1 and 9-2, “LDP-Ala” represents L-Tyrosine,N-L-alanyl-3-hydroxy-(9CI) and has the following structural formula: […]

[3] = Evaluation of solubility in water; conditions: for pH of filtrate: filtrate of the solubility test; for solubility at 24 h: thermodynamic from solid, water, shaken at 25° C. for 24 hours
Experimental: Water was added to each of the compounds to prepare a suspension, which was shaken at 25° C. for 24 hours, and then, filtration through a filter was performed to obtain a filtrate. A compound concentration in the filtrate was quantified using HPLC to obtain the solubility. Further, the pH of the filtrate was measured.

[4] = Evaluation of solution stability, pH 7.4, 60° C.; conditions: phosphate buffer pH 7.4, about 1 mg/mL, after about 1 day
Experimental: A phosphate buffer solution at pH 7.4 was added to each of the compounds to dissolve the each of the compounds, and when necessary, a NaOH solution was added to adjust the pH of the mixture to prepare a solution of about 1 mg/mL. After storing this solution at 60° C. for about 1 day, HPLC purity (area percentage, %) was measured. The HPLC purity of the solution immediately after the preparation, or the HPLC purity of the compound, was subtracted from the HPLC purity after storage at 60° C. for about 1 day to obtain a HPLC purity difference.

Row | SMILES | stability in aqueous solutions near neutrality [2] | HPLC purity difference ([2]; after about 1 day) [%] | pH of filtrate [3] | solubility at 24 h [3] [mg/mL] | HPLC purity difference [4] [%] | further results
1 | C[C@@](Cc1ccc(O)c(O)c1)(NN)C(=O)O [Carbidopa, carbidopa, reference compound] |  |  |  |  |  | mg/mL (concentration in formulation) ([1]; 1 month): 7.32 mg/mL; mg/mL (concentration in formulation) ([1]; 1 week): 7.36 mg/mL; mg/mL (concentration in formulation) ([1]; 2 months): 7.32 mg/mL; mg/mL (concentration in formulation) ([1]; 2 weeks): 7.30 mg/mL; mg/mL (concentration in formulation) ([1]; 3 months): 7.35 mg/mL; mg/mL (concentration in formulation) ([1]; t = 0): 7.37 mg/mL
2 | C[C@H](N)C(=O)N[C@@H](Cc1ccc(OP(=O)(O)O)c(O)c1)C(=O)O [Example 1, (2S)-2-[[(2S)-2-aminopropanoyl]amino]-3-(3-hydroxy-4-phosphonooxyphenyl) propanoic acid] | stable | −0.03 | 2.6 | 15.6 (≈ 44.8 mM) | −1.61 | 
3 | N[C@@H](Cc1ccc(O)c(O)c1)C(=O)N[C@@H](Cc1ccc(OP(=O)(O)O)c(O)c1)C(=O)O [Example 2, (2S)-2-[[(2S)-2-amino-3-(3,4-dihydroxyphenyl)propanoyl]amino]-3-(3-hydroxy-4-phosphonooxyphenyl) propanoic acid] |  | −3.53 | 2.6 | > 31.1 |  | 
4 | NCCCC[C@H](N)C(=O)N[C@@H](Cc1ccc(OP(=O)(O)O)c(O)c1)C(=O)O [Example 8, (2S)-2-[[(2S)-2,6-diaminohexanoyl]amino]-3-(3-hydroxy-4-phosphonooxyphenyl) propanoic acid] | stable |  |  |  |  | HPLC purity difference ([2]; after 1.9 days): 0.25 (after 1.9 days) %
5 | N[C@@H](Cc1ccc(OP(=O)(O)O)cc1)C(=O)N[C@@H](Cc1ccc(O)c(O)c1)C(=O)O [Example 10, (2S)-2-[[(2S)-2-amino-3-(4-phosphonooxyphenyl)propanoyl]amino]-3-(3,4-dihydroxyphenyl) propanoic acid] (H-[pY]-[Dopa]-OH) |  | −0.67 |  |  |  | 
6 | C[C@H](N)C(=O)N[C@@H](Cc1ccc(O)c(O)c1)C(=O)O [LDP-Ala, L-Tyrosine,N-L-alanyl-3-hydroxy-(9CI), reference compound] (H-Ala-[Dopa]-OH) |  | −3.80 |  |  | −25.00 | 
